How the values were obtained:
Type in all cases: cell-based
[1] = tested on: Trypanosoma brucei Lister 427 VSG221 with APOL1 G1 recombinant protein; assay: APOL1 G1 trypanosome cell rescue assay (Example B5); conditions: Trypanosoma brucei, 20 h, read-out: APOL1 G1 Trypanosome Rescue EC50, Trypanosoma brucei Lister 427 VSG221 with APOL1 G1 recombinant protein, 20 hours, CellTiter-Glo; geometric mean of at least 2 assay runs; † = single assay run
Procedure, shortened: (§1)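 Luminescent ATP read-out (CellTiter-Glo) of trypanosome viability after 20 h at 37° C. Bloodstream T. brucei Lister 427 VSG221, 250/well in modified HMI-9, were exposed to recombinant mature APOL1 (aa 28-398) from a 2 μg/mL addition, plus compound in 11-point 2-fold series.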

[2] = tested on: HEK293 cells overexpressing APOL1 G2; assay: APOL1 G2 HEK293 cell rescue assay (reversal of cell death caused by overexpression of APOL1); conditions: Homo sapiens, HEK293, HEK293 overexpressing APOL1 G2; geometric mean of at least 2 assay runs; † = single assay run
Procedure, shortened: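 Each compound tested in duplicate wells on one plate per run, with values usually the geometric mean across at least two runs on different days, occasionally from one run only. Read-out: concentration giving half-maximal rescue of APOL1 G2 overexpression-induced death of HEK293 cells.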

[3] = tested on: Trypanosoma brucei Lister 427 VSG221 with APOL1 G0 recombinant protein; assay: APOL1 G0 trypanosome cell rescue assay (Example B5); conditions: Trypanosoma brucei, 20 h, read-out: APOL1 G0 Trypanosome Rescue EC50, Trypanosoma brucei Lister 427 VSG221 with APOL1 G0 recombinant protein, 20 hours, CellTiter-Glo; geometric mean of at least 2 assay runs; † = single assay run
Procedure, shortened: as §1

`CN(C)C(=O)c1ccc(OCCN2CCC3(CC2)C(=O)Nc2ccc(Cl)cc23)cc1F` [Compound 230, 4-(2-{5-chloro-2-oxo-1,2-dihydrospiro[indole-3,4′-piperidin]-1′-yl}ethoxy)-2-fluoro-N,N-dimethylbenzamide] gave an EC50 [1] of 801 nM, an EC50 [2] of 98.7 nM and an EC50 [3] of 427 nM.

With `O=C(c1ccc(OCCN2CCC3(CC2)C(=O)Nc2ccc(Cl)cc23)cc1F)N1CCOCC1` [Compound 231, 5-chloro-1′-{2-[3-fluoro-4-(morpholine-4-carbonyl)phenoxy]ethyl}-1,2-dihydrospiro[indole-3,4′-piperidin]-2-one] the EC50 [1] was 231 nM, the EC50 [2] was 42 nM and the EC50 [3] was 135 nM.

`O=C(c1ccc(OCCN2CCC3(CC2)C(=O)Nc2ccc(Cl)cc23)cc1F)N1CCS(=O)(=O)CC1` [Compound 232, 4-[4-(2-{5-chloro-2-oxo-1,2-dihydrospiro[indole-3,4′-piperidin]-1′-yl}ethoxy)-2-fluorobenzoyl]-1λ^6-thiomorpholine-1,1-dione] showed an EC50 [1] of 157 nM, an EC50 [2] of 39.2 nM and an EC50 [3] of 97.6 nM.

With `CS(=O)(=O)C1CN(C(=O)c2ccc(OCCN3CCC4(CC3)C(=O)Nc3ccc(Cl)cc34)cc2F)C1` [Compound 233, 5-chloro-1′-{2-[3-fluoro-4-(3-methanesulfonyl-azetidine-1-carbonyl)phenoxy]ethyl}-1,2-dihydrospiro[indole-3,4′-piperidin]-2-one] the EC50 [1] was 134 nM, the EC50 [2] was 57.7 nM and the EC50 [3] was 81.7 nM.

With `O=C(c1ccc(OCCN2CCC3(CC2)C(=O)Nc2ccc(Cl)cc23)cc1F)N1CCC1` [Compound 234, 1′-{2-[4-(azetidine-1-carbonyl)-3-fluorophenoxy]ethyl}-5-chloro-1,2-dihydrospiro[indole-3,4′-piperidin]-2-one] the EC50 [1] was 475 nM, the EC50 [2] was 80.3 nM and the EC50 [3] was 272 nM.

`O=C(c1ccc(OCCN2CCC3(CC2)C(=O)Nc2ccc(Cl)cc23)cc1F)N1CC(O)C1` [Compound 235, 5-chloro-1′-{2-[3-fluoro-4-(3-hydroxyazetidine-1-carbonyl)phenoxy]ethyl}-1,2-dihydrospiro[indole-3,4′-piperidin]-2-one] showed an EC50 [1] of 452 nM, an EC50 [2] of 59.8 nM and an EC50 [3] of 270 nM.

Work on `NC1CN(C(=O)c2ccc(OCCN3CCC4(CC3)C(=O)Nc3ccc(Cl)cc34)cc2F)C1` [Compound 236, 1′-{2-[4-(3-aminoazetidine-1-carbonyl)-3-fluorophenoxy]ethyl}-5-chloro-1,2-dihydrospiro[indole-3,4′-piperidin]-2-one] yielded an EC50 [1] of 866 nM, an EC50 [2] of 45 nM and an EC50 [3] of 766 nM.

For `CS(=O)(=O)NC1CN(C(=O)c2ccc(OCCN3CCC4(CC3)C(=O)Nc3ccc(Cl)cc34)cc2F)C1` [Compound 237, N-{1-[4-(2-{5-chloro-2-oxo-1,2-dihydrospiro[indole-3,4′-piperidin]-1′-yl}ethoxy)-2-fluorobenzoyl]azetidin-3-yl} methanesulfonamide], the EC50 [1] was 196 nM, the EC50 [2] was 238 nM and the EC50 [3] was 132 nM.

With `N#Cc1ccc2c(c1)C1(CCN(CCOc3ccc(C(N)=O)c(F)c3)CC1)C(=O)N2` [Compound 238, 4-(2-{5-cyano-2-oxo-1,2-dihydrospiro[indole-3,4′-piperidin]-1′-yl}ethoxy)-2-fluorobenzamide] the EC50 [1] was > 4000 nM, the EC50 [2] was 85.2 nM and the EC50 [3] was 1590 nM.

Work on `O=C(c1ccc(OCCN2CCC3(CC2)C(=O)Nc2ccc(Cl)cc23)cc1F)N1CC2(C1)CS(=O)(=O)C2` [Compound 239, 6-[4-(2-{5-chloro-2-oxo-1,2-dihydrospiro[indole-3,4′-piperidin]-1′-yl}ethoxy)-2-fluorobenzoyl]-2λ^6-thia-6-azaspiro[3.3]heptane-2,2-dione] yielded an EC50 [1] of 48.8 nM, an EC50 [2] of 77.9 nM and an EC50 [3] of 40 nM.

Work on `Cc1n[nH]cc1-c1ccc(OCCN2CCC3(CC2)C(=O)Nc2ccc(Cl)cc23)cc1` [Compound 244, 5-chloro-1′-{2-[4-(5-methyl-1H-pyrazol-4-yl)phenoxy]ethyl}-1,2-dihydrospiro[indole-3,4′-piperidin]-2-one] yielded an EC50 [1] of 151 nM, an EC50 [2] of 70.4 nM and an EC50 [3] of 141 nM.

`CNC(=O)N1CCc2cc(OCCN3CCC4(CC3)C(=O)Nc3ccc(Cl)cc34)ccc2C1` [Compound 245, 6-(2-{5-chloro-2-oxo-1,2-dihydrospiro[indole-3,4′-piperidin]-1′-yl}ethoxy)-N-methyl-1,2,3,4-tetrahydroisoquinoline-2-carboxamide] gave an EC50 [1] of 379 nM, an EC50 [2] of 139 nM and an EC50 [3] of 265 nM.

`Cn1c(=O)[nH]c2cc(OCCN3CCC4(CC3)C(=O)Nc3ccc(Cl)cc34)cnc21` [Compound 247, 5-chloro-1′-[2-({3-methyl-2-oxo-1H,2H,3H-imidazo[4,5-b]pyridin-6-yl}oxy)ethyl]-1,2-dihydrospiro[indole-3,4′-piperidin]-2-one] was tested, and the EC50 [1] was 246 nM, the EC50 [2] was 92 nM and the EC50 [3] was 186 nM.

Work on `O=C1Nc2ccc(Cl)cc2C12CCN(CCOc1ccc(S(=O)(=O)C3(CO)CC3)nc1)CC2` [Compound 248, 5-chloro-1′-{2-[(6-{[1-(hydroxymethyl)cyclopropyl]sulfonyl}pyridin-3-yl)oxy]ethyl}-1,2-dihydrospiro[indole-3,4′-piperidin]-2-one] yielded an EC50 [1] of 126 nM, an EC50 [2] of 58.4 nM and an EC50 [3] of 86.2 nM.

`NC(=O)c1ccc(OCCN2CCC3(CC2)C(=O)Nc2ccc(Cl)cc23)cc1C(F)F` [Compound 249, 4-(2-{5-chloro-2-oxo-1,2-dihydrospiro[indole-3,4′-piperidin]-1′-yl}ethoxy)-2-(difluoromethyl)benzamide] was tested, and the EC50 [1] was 73.8 nM, the EC50 [2] was 26.8 nM and the EC50 [3] was 53.8 nM.

`N#Cc1ccc2c(c1)C1(CCN(CCOc3ccc(C(N)=O)c(C(F)F)c3)CC1)C(=O)N2` [Compound 250, 4-(2-{5-cyano-2-oxo-1,2-dihydrospiro[indole-3,4′-piperidin]-1′-yl}ethoxy)-2-(difluoromethyl)benzamide] gave an EC50 [1] of 678 nM, an EC50 [2] of 49.2 nM and an EC50 [3] of 445 nM.

For `CN1C(=O)C2(CCN(CCOc3ccc(C4(S(C)(=O)=O)COC4)cc3)CC2)c2cc(C#N)ccc21` [Compound 251, 1′-{2-[4-(3-methanesulfonyloxetan-3-yl)phenoxy]ethyl}-1-methyl-2-oxo-1,2-dihydrospiro[indole-3,4′-piperidine]-5-carbonitrile], the EC50 [1] was 1120 nM, the EC50 [2] was 125 nM and the EC50 [3] was 903 nM.

With `CN(C)C(=O)C1(c2ccc(OCCN3CCC4(CC3)C(=O)Nc3ccc(C#N)cc34)cc2)COC1` [Compound 254, 3-[4-(2-{5-cyano-2-oxo-1,2-dihydrospiro[indole-3,4′-piperidin]-1′-yl}ethoxy)phenyl]-N,N-dimethyloxetane-3-carboxamide] the EC50 [1] was 951 nM, the EC50 [2] was 175 nM and the EC50 [3] was 695 nM.

For `CNC(=O)C1(c2ccc(OCCN3CCC4(CC3)C(=O)Nc3ccc(C#N)cc34)cc2)COC1` [Compound 255, 3-[4-(2-{5-cyano-2-oxo-1,2-dihydrospiro[indole-3,4′-piperidin]-1′-yl}ethoxy)phenyl]-N-methyloxetane-3-carboxamide], the EC50 [1] was 2920 nM, the EC50 [2] was 353 nM and the EC50 [3] was 1380 nM.

Compound `O=C(c1c(F)cc(OCCN2CCC3(CC2)C(=O)Nc2ccc(Cl)cc23)cc1F)N1CCS(=O)(=O)CC1` [Compound 259, 4-[4-(2-{5-chloro-2-oxo-1,2-dihydrospiro[indole-3,4′-piperidin]-1′-yl}ethoxy)-2,6-difluorobenzoyl]-1λ^6-thiomorpholine-1,1-dione] has an EC50 [1] of 92.2 nM, an EC50 [2] of 37.5 nM and an EC50 [3] of 68 nM.

Work on `CN1C(=O)C2(CCN(CCOc3cc(F)c(C(=O)N4CCS(=O)(=O)CC4)c(F)c3)CC2)c2cc(C#N)ccc21` [Compound 260, 1′-{2-[4-(1,1-dioxo-1λ^6-thiomorpholine-4-carbonyl)-3,5-difluorophenoxy]ethyl}-1-methyl-2-oxo-1,2-dihydrospiro[indole-3,4′-piperidine]-5-carbonitrile] yielded an EC50 [1] of 397 nM, an EC50 [2] of 119 nM and an EC50 [3] of 274 nM.

With `CN1C(=O)C2(CCN(CCOc3ccc(C(=O)N4CCS(=O)(=O)CC4)c(C(F)(F)F)c3)CC2)c2cc(C#N)ccc21` [Compound 261, 1′-{2-[4-(1,1-dioxo-1λ^6-thiomorpholine-4-carbonyl)-3-(trifluoromethyl)phenoxy]ethyl}-1-methyl-2-oxo-1,2-dihydrospiro[indole-3,4′-piperidine]-5-carbonitrile] the EC50 [1] was 100 nM, the EC50 [2] was 89 nM and the EC50 [3] was 84 nM.

In the case of `CS(=O)(=O)c1ccc(OCCN2CCC3(CC2)C(=O)N(CCO)c2ccc(Cl)cc23)cc1C(F)F` [Compound 265, 5-chloro-1′-{2-[3-(difluoromethyl)-4-methanesulfonylphenoxy]ethyl}-1-(2-hydroxyethyl)-1,2-dihydrospiro[indole-3,4′-piperidin]-2-one], the EC50 [1] is reported as 105 nM, the EC50 [2] is reported as 30 nM and the EC50 [3] is reported as 67.6 nM.

`CS(=O)(=O)c1ccc(OCCN2CCC3(CC2)C(=O)N(CCO)c2ccc(C#N)cc23)cc1C(F)F` [Compound 266, 1′-{2-[3-(difluoromethyl)-4-methanesulfonylphenoxy]ethyl}-1-(2-hydroxyethyl)-2-oxo-1,2-dihydrospiro[indole-3,4′-piperidine]-5-carbonitrile] was tested, and the EC50 [1] was 407 nM, the EC50 [2] was 104 nM and the EC50 [3] was 236 nM.
